Results published in the supplement of paper PMC11061612.

Assays:
[1] = compound: C1CN(CCC1(C(=O)N[C@@H](CCO)C2=CC=C(C=C2)Cl)N)C3=NC=NC4=C3C=CN4 [Capivasertib]; settings: max 10 µM
How it was run: (§1)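 After 24 hours at 37°C and 5% CO2 in 1536-well plates holding 7.5 μl of DMEM/F12 or RPMI with 10% FBS, cancer cell lines were dosed for 72 hours, with final DMSO typically 0.2%. Viability came from CellTiter-Glo 2.0 luminescence, scaled between the means of blank wells and DMSO wells. A non-linear mixed effects model fitted a two-parameter logistic curve to each dose response to give the single-agent IC50.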

[2] = compound: C=CCn1c(=O)c2cnc(Nc3ccc(N4CCN(C)CC4)cc3)nc2n1-c1cccc(C(C)(C)O)n1 [AZD1775]; settings: max 3 µM
How it was run: as §1

[3] = compound: CC(=O)Nc1cccc(-n2c(=O)n(C3CC3)c(=O)c3c(Nc4ccc(I)cc4F)n(C)c(=O)c(C)c32)c1 [Trametinib]; settings: max 1 µM
How it was run: as §1

[4] = compound: CC(=O)c1c(C)c2cnc(Nc3ccc(N4CCNCC4)cn3)nc2n(C2CCCC2)c1=O [Palbociclib]; settings: max 10 µM
How it was run: as §1

[5] = compound: CC(C)n1c(=O)n(C)c2cnc3cc(F)c(-c4ccc(OCCCN5CCCCC5)nc4)cc3c21 [AZD1390]; settings: max 0.3 µM
How it was run: as §1

[6] = compound: CC1(C)CCC(CN2CCN(c3ccc(C(=O)NS(=O)(=O)c4ccc(NCC5CCOCC5)c([N+](=O)[O-])c4)c(Oc4cnc5[nH]ccc5c4)c3)CC2)=C(c2ccc(Cl)cc2)C1 [Venetoclax]; settings: max 1 µM
How it was run: as §1

[7] = compound: CC1=C(C(=CC=C1)Cl)NC(=O)C2=CN=C(S2)NC3=CC(=NC(=N3)C)N4CCN(CC4)CCO [Dasatinib]; settings: max 2 µM
How it was run: as §1

[8] = compound: CC1=CN2[C@@H](C1)C=NC3=CC(=C(C=C3C2=O)OC)OCCCCCOC4=C(C=C5C(=C4)N=C[C@@H]6CC(=CN6C5=O)C)OC [SG3199]; settings: max 0.001 µM
How it was run: as §1

[9] = compound: CCN(CCO)CCCOc1ccc2c(Nc3cc(CC(=O)Nc4cccc(F)c4)[nH]n3)ncnc2c1 [AZD2811]; settings: max 1 µM
How it was run: as §1

[10] = compound: CCc1c2c(nc3ccc(O)cc13)-c1cc3c(c(=O)n1C2)COC(=O)[C@]3(O)CC [SN-38]; settings: max 0.3 µM
How it was run: as §1

[11] = compound: CN(C)CCCOc1ccc(-c2ccc3ncc4c(c3c2)n(C2CCOCC2)c(=O)n4C)cn1 [AZD0156]; settings: max 3 µM
How it was run: as §1

[12] = compound: CN(CC[C@H](CSC1=CC=CC=C1)NC2=C(C=C(C=C2)S(=O)(=O)NC(=O)C3=CC=C(C=C3)N4CCC(CC4)[C@H](C5=CC=CC=C5C6=CC=C(C=C6)Cl)O)S(=O)(=O)C(F)(F)F)CCO [AZD4320]; settings: max 1 µM
How it was run: as §1

[13] = compound: COc1cc(Nc2ncc3c(n2)-c2ccc(Cl)cc2C(c2c(F)cccc2OC)=NC3)ccc1C(=O)O [Alisertib]; settings: max 10 µM
How it was run: as §1

[14] = compound: COc1cc2ncnc(Nc3ccc(F)c(Cl)c3)c2cc1OCCCN1CCOCC1 [Gefitinib]; settings: max 10 µM
How it was run: as §1

[15] = compound: COc1cccc(OCCCN)c1-c1cc(Nc2cnc(C#N)cn2)n[nH]1 [Prexasertib]; settings: max 1 µM
How it was run: as §1

[16] = compound: COc1cccc2c1C(=O)c1c(O)c3c(c(O)c1C2=O)C[C@@](O)(C(=O)CO)C[C@@H]3O[C@H]1C[C@H](N)[C@H](O)[C@H](C)O1 [Doxorubicin]; settings: max 1 µM
How it was run: as §1

[17] = compound: COc1nnc2ccc(N3CCC(c4ccc(OCCN5CCN(C)C(=O)[C@H]5C)cc4)CC3)nn12 [AZD5153]; settings: max 1 µM
How it was run: as §1

[18] = compound: CS(=O)(=O)CCNCc1ccc(-c2ccc3ncnc(Nc4ccc(OCc5cccc(F)c5)c(Cl)c4)c3c2)o1 [Lapatinib]; settings: max 10 µM
How it was run: as §1

[19] = compound: C[C@@H](Nc1cc(F)cc(F)c1)c1cc(C(=O)N(C)C)cc2c(=O)cc(N3CCOCC3)oc12 [AZD8186]; settings: max 3 µM
How it was run: as §1

[20] = compound: C[C@@H](Oc1cc(-c2cnn(C3CCNCC3)c2)cnc1N)c1c(Cl)ccc(F)c1Cl [Crizotinib]; settings: max 10 µM
How it was run: as §1

[21] = compound: C[C@@H](c1ccc2nccn2c1)n1nnc2ncc(-c3cnn(C)c3)nc21 [Savolitinib]; settings: max 1 µM
How it was run: as §1

[22] = compound: C[C@@H]1COCCN1C2=NC(=NC(=C2)C3(CC3)[S@](=N)(=O)C)C4=C5C=CNC5=NC=C4 [AZD6738]; settings: max 10 µM
How it was run: as §1

[23] = compound: Cc1c2c(nn1C)CSCc1cc(n(C)n1)CSc1cc(c3ccccc3c1)OCCCc1c(C(=O)O)n(C)c3c-2c(Cl)ccc13 [AZD5991]; settings: max 1 µM
How it was run: as §1

[24] = compound: Cc1cc2ncnn2cc1Nc1ncc2c(n1)n(C1CCOCC1)c(=O)n2C [AZD7648]; settings: max 10 µM
How it was run: as §1

[25] = compound: Cc1nc(-c2cn3c(n2)-c2ccc(-c4cnn(C(C)(C)C(N)=O)c4)cc2OCC3)n(C(C)C)n1 [Taselisib]; settings: max 10 µM
How it was run: as §1

[26] = compound: Cn1cnc2c(F)c(Nc3ccc(Br)cc3Cl)c(C(=O)NOCCO)cc21 [Selumetinib]; settings: max 10 µM
How it was run: as §1

[27] = compound: O=C(c1cc(Cc2n[nH]c(=O)c3ccccc23)ccc1F)N1CCN(C(=O)C2CC2)CC1 [Olaparib]; settings: max 10 µM
How it was run: as §1

Cell Line | IC50, cell viability 72 h [1] | IC50, cell viability 72 h [2] | IC50, cell viability 72 h [3] | IC50, cell viability 72 h [4] | IC50, cell viability 72 h [5] | IC50, cell viability 72 h [6] | IC50, cell viability 72 h [7] | IC50, cell viability 72 h [8] | IC50, cell viability 72 h [9] | IC50, cell viability 72 h [10] | IC50, cell viability 72 h [11] | IC50, cell viability 72 h [12] | IC50, cell viability 72 h [13] | IC50, cell viability 72 h [14] | IC50, cell viability 72 h [15] | IC50, cell viability 72 h [16] | IC50, cell viability 72 h [17] | IC50, cell viability 72 h [18] | IC50, cell viability 72 h [19] | IC50, cell viability 72 h [20] | IC50, cell viability 72 h [21] | IC50, cell viability 72 h [22] | IC50, cell viability 72 h [23] | IC50, cell viability 72 h [24] | IC50, cell viability 72 h [25] | IC50, cell viability 72 h [26] | IC50, cell viability 72 h [27]
G-401 (Other Solid Carcinomas) | 2710 nM | 1410 nM | 84.2 nM | 833 nM | > 300 nM | > 1000 nM | > 2000 nM | > 1 nM | > 1000 nM | 58.9 nM | > 3000 nM | > 1000 nM | 1000 nM | > 10000 nM | 239 nM | 111 nM | 48.3 nM | > 10000 nM | > 3000 nM | 5410 nM | > 1000 nM | > 10000 nM | > 1000 nM | > 10000 nM | 336 nM | > 10000 nM | > 10000 nM
CADO-ES1 (Ewing's Sarcoma) | > 10000 nM | 2290 nM | > 1000 nM | > 10000 nM | > 300 nM | 60.9 nM | > 2000 nM | > 1 nM | > 1000 nM | 2.06 nM | > 3000 nM | 243 nM | 135 nM | > 10000 nM | 50 nM | 827 nM | > 1000 nM | > 10000 nM | > 3000 nM | > 10000 nM | > 1000 nM | 2890 nM | 207 nM | > 10000 nM | > 10000 nM | > 10000 nM | > 10000 nM
